The IC50 is the point on the concentration scale where inhibition reaches its midpoint.

Bridge positions count the residues as written; N and C are the ends. Square brackets hold non-standard residues; d marks the D form. Peptide text beside a SMILES is read from it. Nle = CCCC[C@H](N)C(=O)O

What all share (experiment): cell-based
Assay [1] concerns the target T1, Kv1.3 (Homo sapiens, UniProt P22001).
T1 construct: expressed in transfected cells; host or cells: Chinese Hamster Ovary (CHO)
As to conditions: CHO cells, whole-cell patch clamp; read-out: Potency IC50 (nM) Kv1.3.

For assay [2], the target named is T2, Kv1.6 (Homo sapiens, UniProt P17658).
T2 construct: expressed in transfected cells; host or cells: Chinese Hamster Ovary (CHO)
The note with it: for IC50: CHO cells, whole-cell patch clamp, read-out: Potency IC50 (nM) Kv1.6; for Selectivity Kv1.6/Kv1.3: ratio IC50[Kv1.6]/IC50[Kv1.3]. In general terms: The patch-clamp technique gives a direct electrical read-out from membranes.

Assay [3] has as its target T3, Kv1.1 (Homo sapiens, UniProt Q09470).
T3 construct: expressed in transfected cells; host or cells: Chinese Hamster Ovary (CHO)
As to conditions: for IC50: CHO cells, whole-cell patch clamp, read-out: Potency IC50 (nM) Kv1.1; for Selectivity Kv1.1/Kv1.3: ratio IC50[Kv1.1]/IC50[Kv1.3].

In assay [4] the target is T4, Kv1.2 (Homo sapiens, UniProt P16389).
T4 construct: expressed in transfected cells; host or cells: Chinese Hamster Ovary (CHO)
As to conditions: CHO cells, whole-cell patch clamp; read-out: Potency IC50 (nM) Kv1.2.

Assay [5] concerns the target T5, human Kv1.3 voltage-gated K+ channel (Homo sapiens, UniProt P22001).
T5 construct: host or cells: CHO-DUKX
The note with it: inhibition of thallium flux, CHO-DUKX cells with human Kv1.3; read-out: IC50.

T1 sequence (P22001 whole entry): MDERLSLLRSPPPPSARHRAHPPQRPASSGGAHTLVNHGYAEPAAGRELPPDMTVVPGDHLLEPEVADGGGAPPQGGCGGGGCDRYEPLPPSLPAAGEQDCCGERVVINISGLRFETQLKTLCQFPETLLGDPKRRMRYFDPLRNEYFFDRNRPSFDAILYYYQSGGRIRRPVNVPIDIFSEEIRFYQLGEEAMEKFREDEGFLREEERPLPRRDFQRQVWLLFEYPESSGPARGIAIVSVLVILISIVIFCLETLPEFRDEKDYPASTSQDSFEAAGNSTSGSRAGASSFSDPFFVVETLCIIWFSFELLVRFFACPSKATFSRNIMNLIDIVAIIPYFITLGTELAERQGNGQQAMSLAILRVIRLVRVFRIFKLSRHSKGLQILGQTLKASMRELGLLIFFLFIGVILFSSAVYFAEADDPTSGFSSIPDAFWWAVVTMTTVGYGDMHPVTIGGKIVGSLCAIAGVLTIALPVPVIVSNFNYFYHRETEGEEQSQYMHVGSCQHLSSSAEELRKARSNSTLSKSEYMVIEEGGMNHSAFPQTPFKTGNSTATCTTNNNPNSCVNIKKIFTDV
T5 sequence (P22001 whole entry): as above
T2 sequence (P17658 whole entry): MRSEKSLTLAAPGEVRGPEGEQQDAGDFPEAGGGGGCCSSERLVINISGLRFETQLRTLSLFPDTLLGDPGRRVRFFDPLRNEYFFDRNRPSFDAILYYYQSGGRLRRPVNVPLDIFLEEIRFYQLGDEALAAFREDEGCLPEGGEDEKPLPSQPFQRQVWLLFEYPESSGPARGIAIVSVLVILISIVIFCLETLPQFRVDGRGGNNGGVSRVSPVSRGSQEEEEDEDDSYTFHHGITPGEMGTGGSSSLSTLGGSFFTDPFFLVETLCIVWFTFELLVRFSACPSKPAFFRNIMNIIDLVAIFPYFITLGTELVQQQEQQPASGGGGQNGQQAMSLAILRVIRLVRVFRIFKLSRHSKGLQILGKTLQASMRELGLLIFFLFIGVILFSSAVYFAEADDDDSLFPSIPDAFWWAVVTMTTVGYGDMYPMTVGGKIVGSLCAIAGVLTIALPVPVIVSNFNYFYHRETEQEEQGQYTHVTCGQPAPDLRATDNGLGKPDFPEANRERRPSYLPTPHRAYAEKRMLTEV
T3 sequence (Q09470 whole entry): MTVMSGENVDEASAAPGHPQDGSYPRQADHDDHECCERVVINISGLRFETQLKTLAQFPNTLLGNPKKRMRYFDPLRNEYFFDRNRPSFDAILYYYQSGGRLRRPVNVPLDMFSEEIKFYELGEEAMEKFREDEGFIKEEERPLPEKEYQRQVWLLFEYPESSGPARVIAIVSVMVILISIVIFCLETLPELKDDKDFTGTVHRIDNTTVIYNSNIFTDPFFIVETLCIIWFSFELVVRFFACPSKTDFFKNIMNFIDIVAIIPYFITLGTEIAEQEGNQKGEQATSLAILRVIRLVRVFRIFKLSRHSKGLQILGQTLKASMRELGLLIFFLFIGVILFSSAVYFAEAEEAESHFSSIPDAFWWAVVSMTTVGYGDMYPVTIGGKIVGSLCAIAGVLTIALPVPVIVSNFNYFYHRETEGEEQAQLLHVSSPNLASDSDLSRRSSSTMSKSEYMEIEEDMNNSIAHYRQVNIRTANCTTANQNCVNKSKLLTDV
T4 sequence (P16389 whole entry): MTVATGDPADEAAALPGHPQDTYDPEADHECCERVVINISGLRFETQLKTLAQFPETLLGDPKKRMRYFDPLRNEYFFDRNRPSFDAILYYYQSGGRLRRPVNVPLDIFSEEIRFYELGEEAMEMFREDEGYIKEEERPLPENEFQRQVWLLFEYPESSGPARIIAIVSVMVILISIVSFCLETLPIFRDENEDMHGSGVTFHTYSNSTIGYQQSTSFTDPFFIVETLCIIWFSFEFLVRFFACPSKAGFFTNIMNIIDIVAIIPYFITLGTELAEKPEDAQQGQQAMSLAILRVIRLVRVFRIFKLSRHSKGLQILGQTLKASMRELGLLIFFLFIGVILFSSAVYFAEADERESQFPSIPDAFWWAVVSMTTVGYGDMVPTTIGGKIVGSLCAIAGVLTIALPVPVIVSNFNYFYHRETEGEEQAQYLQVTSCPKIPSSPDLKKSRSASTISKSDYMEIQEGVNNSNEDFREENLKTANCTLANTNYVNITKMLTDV

As for `CCCC[C@@H]1NC(=O)[C@@H]2CSSC[C@H](NC(=O)[C@H](CCCNC(=N)N)NC(=O)[C@H](CCCC)NC(=O)[C@H](CC(=O)O)NC(=O)[C@H](CCCC)NC(=O)[C@@H](N)CC(N)=O)C(=O)N[C@@H](CO)C(=O)N[C@@H](C)C(=O)N[C@@H](CO)C(=O)N[C@@H](C(C)C)C(=O)N[C@@H](CCC(=O)O)C(=O)N[C@H]3CSSC[C@H](NC(=O)[C@H](CCCCN)NC(=O)[C@H](CCCCN)NC(=O)[C@H](CC(N)=O)NC1=O)C(=O)N[C@@H](CCCCN)C(=O)N[C@H](C(=O)N[C@@H](Cc1ccc(O)cc1)C(=O)N1CCC[C@H]1C(=O)N[C@@H](CCCNC(=N)N)C(N)=O)CSSC[C@H](NC(=O)[C@H](CCCCN)NC(=O)[C@H](CCCCN)NC(=O)[C@H](CCCCN)NC3=O)C(=O)N[C@@H](CC(C)C)C(=O)N[C@@H](CCCCN)C(=O)N[C@@H](C)C(=O)N[C@@H]([C@@H](C)CC)C(=O)NCC(=O)N[C@@H](CO)C(=O)N[C@@H]([C@@H](C)CC)C(=O)N[C@@H](Cc1ccccc1)C(=O)NCC(=O)N[C@@H](CCCCN)C(=O)N2` [Compound 45] (H-N[Nle]D[Nle]RCSASVECKKKCLKAIGSIFGKC[Nle]NKKCKCYPR-NH2; disulfide 6-27, 12-32, 16-34), the 50% inhibitory concentration (IC50) in assay [1] is 0.75 nM; in assay [2], > 3000 nM; in assay [3] it was > 3000 nM; in assay [4], 257 nM; in assay [5] it was 0.16 nM. The “Selectivity Kv1.6/Kv1.3” value in assay [2] is >4000. Further, in assay [3], the “Selectivity Kv1.1/Kv1.3” value is reported as >4000.
`CCCC[C@@H]1NC(=O)[C@@H]2CSSC[C@H](NC(=O)[C@H](CCCNC(=N)N)NC(=O)[C@H](CCCC)NC(=O)[C@H](CC(=O)O)NC(=O)[C@H](CCCC)NC(=O)[C@@H](N)CC(N)=O)C(=O)N[C@@H](CO)C(=O)N[C@@H](C)C(=O)N[C@@H](CO)C(=O)N[C@@H](C(C)C)C(=O)N[C@@H](CCC(=O)O)C(=O)N[C@H]3CSSC[C@H](NC(=O)[C@H](CCCCN)NC(=O)[C@H](CCCCN)NC(=O)[C@H](CC(N)=O)NC1=O)C(=O)N[C@@H](CCCCN)C(=O)N[C@H](C(=O)N[C@@H](Cc1ccc(O)cc1)C(=O)N1CCC[C@H]1C(=O)N[C@@H](CCCNC(=N)N)C(N)=O)CSSC[C@H](NC(=O)[C@H](CCCCN)NC(=O)[C@H](CCC(N)=O)NC(=O)[C@H](CCCCN)NC3=O)C(=O)N[C@@H](CC(C)C)C(=O)N[C@@H](CCCCN)C(=O)N[C@@H](C)C(=O)N[C@@H]([C@@H](C)CC)C(=O)NCC(=O)N[C@@H](CO)C(=O)N[C@@H]([C@@H](C)CC)C(=O)N[C@@H](Cc1ccccc1)C(=O)NCC(=O)N[C@@H](CCCCN)C(=O)N2` [Compound 40] (H-N[Nle]D[Nle]RCSASVECKQKCLKAIGSIFGKC[Nle]NKKCKCYPR-NH2; disulfide 6-27, 12-32, 16-34): the IC50 in assay [1] is 0.26 nM; in assay [2] it was 1830 nM; in assay [3], > 3000 nM; in assay [4], 113 nM; in assay [5] it was 0.1 nM. In assay [3], the “Selectivity Kv1.1/Kv1.3” value was >11600.
For `CC[C@H](C)[C@@H]1NC(=O)[C@H](CO)NC(=O)CNC(=O)[C@H](Cc2ccc(O)cc2)NC(=O)[C@H](C)NC(=O)[C@H](CCCCN)NC(=O)[C@H](CC(C)C)NC(=O)[C@@H]2CSSC[C@@H](C(=O)N[C@@H](Cc3ccc(O)cc3)C(=O)N3CCC[C@H]3C(=O)N[C@@H](CCCNC(=N)N)C(N)=O)NC(=O)[C@H](CCCCN)NC(=O)[C@@H]3CSSC[C@H](NC(=O)[C@H](CCC(=O)O)NC(=O)[C@H](C(C)C)NC(=O)[C@H](CO)NC(=O)[C@H](C)NC(=O)[C@H](CO)NC(=O)[C@@H](NC(=O)[C@H](CCCNC(=N)N)NC(=O)[C@H](CCSC)NC(=O)[C@H](CC(=O)O)NC(=O)[C@H](CCSC)NC(=O)[C@@H](N)CC(N)=O)CSSC[C@H](NC(=O)[C@H](CCCCN)NC(=O)CNC(=O)[C@H](Cc4ccccc4)NC1=O)C(=O)N[C@@H](CCSC)C(=O)N[C@@H](CC(N)=O)C(=O)N[C@@H](CCCCN)C(=O)N[C@@H](CCCCN)C(=O)N3)C(=O)N[C@@H](CCCCN)C(=O)N[C@@H](CCC(N)=O)C(=O)N[C@@H](CCCCN)C(=O)N2` [Compound 58] (H-NMDMRCSASVECKQKCLKAYGSIFGKCMNKKCKCYPR-NH2; disulfide 6-27, 12-32, 16-34), the IC50 was 0.34 nM in assay [1]; > 3000 nM in assay [2]; > 3000 nM in assay [3]; 145 nM in assay [4]; 0.11 nM in assay [5]. In addition, in assay [2], the “Selectivity Kv1.6/Kv1.3” value is recorded as >8800. Moreover, in assay [3], the “Selectivity Kv1.1/Kv1.3” value is reported as >8800.
In the case of `CC[C@H](C)[C@@H]1NC(=O)[C@H](C)NC(=O)[C@H](CCCCN)NC(=O)[C@H](CC(C)C)NC(=O)[C@@H]2CSSC[C@@H](C(=O)N[C@@H](Cc3ccc(O)cc3)C(=O)N3CCC[C@H]3C(=O)N[C@@H](CCCNC(=N)N)C(N)=O)NC(=O)[C@H](CCCCN)NC(=O)[C@@H]3CSSC[C@H](NC(=O)[C@H](CCC(=O)O)NC(=O)[C@H](C(C)C)NC(=O)[C@H](CO)NC(=O)[C@H](C)NC(=O)[C@H](CCCCN)NC(=O)[C@@H](NC(=O)[C@H](CCCNC(=N)N)NC(=O)[C@H](CCSC)NC(=O)[C@H](CC(=O)O)NC(=O)[C@H](CCSC)NC(=O)[C@@H](N)CC(N)=O)CSSC[C@H](NC(=O)[C@H](CCCCN)NC(=O)CNC(=O)[C@H](Cc4ccccc4)NC(=O)[C@H]([C@@H](C)CC)NC(=O)[C@H](CO)NC(=O)CNC1=O)C(=O)N[C@@H](CCSC)C(=O)N[C@@H](CC(N)=O)C(=O)N[C@@H](CCCCN)C(=O)N[C@@H](CCCCN)C(=O)N3)C(=O)N[C@@H](CCCCN)C(=O)N[C@@H](CCC(N)=O)C(=O)N[C@@H](CCCCN)C(=O)N2` [Compound 25] (H-NMDMRCKASVECKQKCLKAIGSIFGKCMNKKCKCYPR-NH2; disulfide 6-27, 12-32, 16-34), the IC50 was 0.09 nM in assay [1]; 363 nM in assay [2]; > 3000 nM in assay [3]; 67 nM in assay [4]; 0.085 nM in assay [5]. In addition, the “Selectivity Kv1.1/Kv1.3” value in assay [3] is given as >34200.
In the case of `CC[C@H](C)[C@@H]1NC(=O)[C@H](C)NC(=O)[C@H](CCCCN)NC(=O)[C@H](CC(C)C)NC(=O)[C@@H]2CSSC[C@@H](C(=O)N[C@@H](Cc3ccc(O)cc3)C(=O)N3CCC[C@H]3C(=O)N[C@@H](CCCNC(=N)N)C(N)=O)NC(=O)[C@H](CCCCN)NC(=O)[C@@H]3CSSC[C@H](NC(=O)[C@H](CCC(=O)O)NC(=O)[C@H](C(C)C)NC(=O)[C@H](CO)NC(=O)[C@H](C)NC(=O)[C@H](CO)NC(=O)[C@@H](NC(=O)[C@H](CCCNC(=N)N)NC(=O)[C@H](CCSC)NC(=O)[C@H](CC(=O)O)NC(=O)[C@H](CCSC)NC(=O)[C@@H](N)CC(N)=O)CSSC[C@H](NC(=O)[C@H](CCCCN)NC(=O)CNC(=O)[C@H](Cc4ccccc4)NC(=O)[C@H]([C@@H](C)CC)NC(=O)[C@H](CO)NC(=O)[C@H](CCC(=O)O)NC1=O)C(=O)N[C@@H](CCSC)C(=O)N[C@@H](CC(N)=O)C(=O)N[C@@H](CCCCN)C(=O)N[C@@H](CCCCN)C(=O)N3)C(=O)N[C@@H](CCCCN)C(=O)N[C@@H](CCC(N)=O)C(=O)N[C@@H](CCCCN)C(=O)N2` [Compound 22] (H-NMDMRCSASVECKQKCLKAIESIFGKCMNKKCKCYPR-NH2; disulfide 6-27, 12-32, 16-34), the IC50 is 0.29 nM in assay [1]; > 3000 nM in assay [2]; > 3000 nM in assay [3]; 181 nM in assay [4]; 0.11 nM in assay [5]. The “Selectivity Kv1.6/Kv1.3” value in assay [2] is reported as >10200. For the same compound, the “Selectivity Kv1.1/Kv1.3” value in assay [3] is recorded as >10200.
In the case of `CC[C@H](C)[C@@H]1NC(=O)[C@H](C)NC(=O)[C@H](CC(C)C)NC(=O)[C@@H]2CSSC[C@@H](C(=O)N[C@@H](Cc3ccc(O)cc3)C(=O)N3CCC[C@H]3C(=O)N[C@@H](CCCNC(=N)N)C(N)=O)NC(=O)[C@H](CCCCN)NC(=O)[C@@H]3CSSC[C@H](NC(=O)[C@H](CCC(=O)O)NC(=O)[C@H](C(C)C)NC(=O)[C@H](CO)NC(=O)[C@H](C)NC(=O)[C@H](CO)NC(=O)[C@@H](NC(=O)[C@H](CCCNC(=N)N)NC(=O)[C@H](CCSC)NC(=O)[C@H](CC(=O)O)NC(=O)[C@H](CCSC)NC(=O)[C@@H](N)CC(N)=O)CSSC[C@H](NC(=O)[C@H](CCCCN)NC(=O)CNC(=O)[C@H](Cc4ccccc4)NC(=O)[C@H]([C@@H](C)CC)NC(=O)[C@H](CO)NC(=O)CNC1=O)C(=O)N[C@@H](CCSC)C(=O)N[C@@H](CC(N)=O)C(=O)N[C@@H](CCCCN)C(=O)N[C@@H](CCCCN)C(=O)N3)C(=O)N[C@@H](CCCCN)C(=O)N[C@@H](CCC(N)=O)C(=O)N[C@@H](CCCCN)C(=O)N2` [Compound 54] (H-NMDMRCSASVECKQKCLAIGSIFGKCMNKKCKCYPR-NH2; disulfide 6-26, 12-31, 16-33), the IC50 in assay [1] is 2.41 nM; in assay [2], > 3000 nM; in assay [3], > 3000 nM; in assay [4], 291 nM; in assay [5], 0.46 nM. The “Selectivity Kv1.6/Kv1.3” value in assay [2] is given as >1200. Besides, in assay [3], the “Selectivity Kv1.1/Kv1.3” value is on record as >1200.

These data come from patent US11780893B2, “Kv1.3 blockers” (Zealand Pharma A/S, priority 2019, dated 2023).
